Test results published in ChEMBL document CHEMBL1671689, “Activity of ceftaroline against recent emerging serotypes of Streptococcus pneumoniae in the United States” (2010).
Values after ≈ are worked out from the molar mass of the structure shown.

What was measured:
Assay type in all cases: functional
Streptococcus pneumoniae [1] = experiment: Antimicrobial activity against multiple drug resistant Streptococcus pneumoniae serotype 19F by broth microdilution method
Streptococcus pneumoniae [2] = experiment: Antimicrobial activity against Streptococcus pneumoniae serotype 35B by broth microdilution method
Streptococcus pneumoniae [3] = experiment: Antimicrobial activity against Streptococcus pneumoniae serotype 3 by broth microdilution method
Streptococcus pneumoniae [4] = experiment: Antimicrobial activity against Streptococcus pneumoniae serotype 19A by broth microdilution method
Streptococcus pneumoniae [5] = experiment: Antimicrobial activity against Streptococcus pneumoniae serotype 6C by broth microdilution method
Streptococcus pneumoniae [6] = experiment: Antimicrobial activity against multiple drug resistant Streptococcus pneumoniae serotype 6B by broth microdilution method
Streptococcus pneumoniae [7] = experiment: Antimicrobial activity against Streptococcus pneumoniae serotype 11A by broth microdilution method
Streptococcus pneumoniae [8] = experiment: Antimicrobial activity against Streptococcus pneumoniae serotype 7F by broth microdilution method
Streptococcus pneumoniae [9] = experiment: Antimicrobial activity against multiple drug resistant Streptococcus pneumoniae serotype 19A by broth microdilution method
Streptococcus pneumoniae [10] = experiment: Antimicrobial activity against multiple drug resistant Streptococcus pneumoniae serotype 19A assessed as percent susceptible isolates by broth microdilution method
Streptococcus pneumoniae [11] = experiment: Antimicrobial activity against Streptococcus pneumoniae serotype 23B assessed as percent susceptible isolates by broth microdilution method
Streptococcus pneumoniae [12] = experiment: Antimicrobial activity against multiple drug resistant Streptococcus pneumoniae serotype 19F assessed as percent susceptible isolates by broth microdilution method
Streptococcus pneumoniae [13] = experiment: Antimicrobial activity against Streptococcus pneumoniae serotype 23A assessed as percent susceptible isolates by broth microdilution method
Streptococcus pneumoniae [14] = experiment: Antimicrobial activity against Streptococcus pneumoniae serotype 6C assessed as percent susceptible isolates by broth microdilution method
Streptococcus pneumoniae [15] = experiment: Antimicrobial activity against Streptococcus pneumoniae serotype 3 assessed as percent susceptible isolates by broth microdilution method
Streptococcus pneumoniae [16] = experiment: Antimicrobial activity against Streptococcus pneumoniae serotype 11A assessed as percent susceptible isolates by broth microdilution method
Streptococcus pneumoniae [17] = experiment: Antimicrobial activity against multiple drug resistant Streptococcus pneumoniae serotype 6B assessed as percent susceptible isolates by broth microdilution method
Streptococcus pneumoniae [18] = experiment: Antimicrobial activity against Streptococcus pneumoniae serotype 15A assessed as percent susceptible isolates by broth microdilution method
Streptococcus pneumoniae [19] = experiment: Antimicrobial activity against Streptococcus pneumoniae serotype 35B assessed as percent susceptible isolates by broth microdilution method
Streptococcus pneumoniae [20] = experiment: Antimicrobial activity against Streptococcus pneumoniae serotype 7F assessed as percent susceptible isolates by broth microdilution method
Streptococcus pneumoniae [21] = experiment: Antimicrobial activity against Streptococcus pneumoniae serotype 19A assessed as percent susceptible isolates by broth microdilution method
Streptococcus pneumoniae [22] = experiment: Antimicrobial activity against Streptococcus pneumoniae serotype 22F assessed as percent susceptible isolates by broth microdilution method
Streptococcus pneumoniae [23] = experiment: Antimicrobial activity against Streptococcus pneumoniae serotype 19F assessed as percent susceptible isolates by broth microdilution method

Structure (SMILES)	MIC50 (Streptococcus pneumoniae [1])	MIC90 (Streptococcus pneumoniae [1])	MIC50 (Streptococcus pneumoniae [2])	MIC90 (Streptococcus pneumoniae [2])	MIC (Streptococcus pneumoniae [3])	MIC50 (Streptococcus pneumoniae [3])	MIC90 (Streptococcus pneumoniae [3])	MIC50 (Streptococcus pneumoniae [4])	MIC90 (Streptococcus pneumoniae [4])	MIC50 (Streptococcus pneumoniae [5])	MIC90 (Streptococcus pneumoniae [5])	MIC50 (Streptococcus pneumoniae [6])	MIC90 (Streptococcus pneumoniae [6])	MIC50 (Streptococcus pneumoniae [7])	MIC90 (Streptococcus pneumoniae [7])	MIC (Streptococcus pneumoniae [8])	MIC50 (Streptococcus pneumoniae [8])	MIC90 (Streptococcus pneumoniae [8])	MIC50 (Streptococcus pneumoniae [9])	MIC90 (Streptococcus pneumoniae [9])	other results
CCO/N=C(\C(=O)N[C@@H]1C(=O)N2C(C(=O)[O-])=C(Sc3nc(-c4cc[n+](C)cc4)cs3)CS[C@H]12)c1nsc(NP(=O)(O)O)n1 [CEFTAROLINE FOSAMIL]	0.25 µg/mL (≈ 0.365 µM)	0.25 µg/mL (≈ 0.365 µM)	0.12 µg/mL (≈ 0.175 µM)	0.12 µg/mL (≈ 0.175 µM)	≤ 0.008 µg/mL	≤ 0.008 µg/mL	≤ 0.008 µg/mL	0.12 µg/mL (≈ 0.175 µM)	0.25 µg/mL (≈ 0.365 µM)	0.015 µg/mL (≈ 0.0219 µM)	0.06 µg/mL (≈ 0.0876 µM)	0.25 µg/mL (≈ 0.365 µM)	0.25 µg/mL (≈ 0.365 µM)	0.06 µg/mL (≈ 0.0876 µM)	0.06 µg/mL (≈ 0.0876 µM)	≤ 0.008 µg/mL	≤ 0.008 µg/mL	0.015 µg/mL (≈ 0.0219 µM)	0.25 µg/mL (≈ 0.365 µM)	0.25 µg/mL (≈ 0.365 µM)	
CO/N=C(\C(=O)N[C@@H]1C(=O)N2C(C(=O)O)=C(CSc3nc(=O)c(O)nn3C)CS[C@H]12)c1csc(N)n1 [CEFTRIAXONE]	2 µg/mL (≈ 3.61 µM)	4 µg/mL (≈ 7.21 µM)	1 µg/mL (≈ 1.8 µM)	1 µg/mL (≈ 1.8 µM)	≤ 0.25 µg/mL	≤ 0.25 µg/mL	≤ 0.25 µg/mL	1 µg/mL (≈ 1.8 µM)	2 µg/mL (≈ 3.61 µM)	0.25 µg/mL (≈ 0.451 µM)	0.25 µg/mL (≈ 0.451 µM)	2 µg/mL (≈ 3.61 µM)	4 µg/mL (≈ 7.21 µM)	≤ 0.25 µg/mL	≤ 0.25 µg/mL	≤ 0.25 µg/mL	≤ 0.25 µg/mL	≤ 0.25 µg/mL	2 µg/mL (≈ 3.61 µM)	4 µg/mL (≈ 7.21 µM)	Activity (Streptococcus pneumoniae [10]): 43.9%; Activity (Streptococcus pneumoniae [11]): 97%; Activity (Streptococcus pneumoniae [12]): 43.9%; Activity (Streptococcus pneumoniae [13]): 100%; Activity (Streptococcus pneumoniae [14]): 100%; Activity (Streptococcus pneumoniae [15]): 100%; Activity (Streptococcus pneumoniae [16]): 98%; Activity (Streptococcus pneumoniae [17]): 43.9%; Activity (Streptococcus pneumoniae [18]): 100%; Activity (Streptococcus pneumoniae [19]): 98.3%; MIC (Streptococcus pneumoniae [7]): ≤ 0.25 µg/mL; Activity (Streptococcus pneumoniae [20]): 98.3%; Activity (Streptococcus pneumoniae [21]): 65.6%; Activity (Streptococcus pneumoniae [22]): 100%; Activity (Streptococcus pneumoniae [23]): 65.5%
CC(=O)NC[C@H]1CN(c2ccc(N3CCOCC3)c(F)c2)C(=O)O1 [LINEZOLID]	0.5 µg/mL (≈ 1.48 µM)	1 µg/mL (≈ 2.96 µM)	1 µg/mL (≈ 2.96 µM)	1 µg/mL (≈ 2.96 µM)		0.5 µg/mL (≈ 1.48 µM)	1 µg/mL (≈ 2.96 µM)	0.5 µg/mL (≈ 1.48 µM)	1 µg/mL (≈ 2.96 µM)	1 µg/mL (≈ 2.96 µM)	1 µg/mL (≈ 2.96 µM)	0.5 µg/mL (≈ 1.48 µM)	1 µg/mL (≈ 2.96 µM)	1 µg/mL (≈ 2.96 µM)	1 µg/mL (≈ 2.96 µM)		0.5 µg/mL (≈ 1.48 µM)	1 µg/mL (≈ 2.96 µM)	0.5 µg/mL (≈ 1.48 µM)	1 µg/mL (≈ 2.96 µM)	Activity (Streptococcus pneumoniae [11]): 100%; Activity (Streptococcus pneumoniae [13]): 100%; Activity (Streptococcus pneumoniae [14]): 100%; Activity (Streptococcus pneumoniae [15]): 100%; Activity (Streptococcus pneumoniae [16]): 100%; Activity (Streptococcus pneumoniae [18]): 100%; Activity (Streptococcus pneumoniae [19]): 100%; Activity (Streptococcus pneumoniae [20]): 100%; Activity (Streptococcus pneumoniae [21]): 100%; Activity (Streptococcus pneumoniae [22]): 100%; Activity (Streptococcus pneumoniae [23]): 100%
COc1c(N2C[C@@H]3CCCN[C@@H]3C2)c(F)cc2c(=O)c(C(=O)O)cn(C3CC3)c12 [MOXIFLOXACIN]			≤ 0.5 µg/mL	≤ 0.5 µg/mL	≤ 0.5 µg/mL	≤ 0.5 µg/mL	≤ 0.5 µg/mL	≤ 0.5 µg/mL	≤ 0.5 µg/mL	≤ 0.5 µg/mL	≤ 0.5 µg/mL			≤ 0.5 µg/mL	≤ 0.5 µg/mL	≤ 0.5 µg/mL	≤ 0.5 µg/mL	≤ 0.5 µg/mL			MIC (Streptococcus pneumoniae [2]): ≤ 0.5 µg/mL; Activity (Streptococcus pneumoniae [10]): 99.2%; Activity (Streptococcus pneumoniae [11]): 97%; Activity (Streptococcus pneumoniae [12]): 99.2%; Activity (Streptococcus pneumoniae [13]): 100%; Activity (Streptococcus pneumoniae [14]): 100%; Activity (Streptococcus pneumoniae [15]): 100%; MIC (Streptococcus pneumoniae [4]): ≤ 0.5 µg/mL; MIC (Streptococcus pneumoniae [5]): ≤ 0.5 µg/mL; Activity (Streptococcus pneumoniae [16]): 100%; Activity (Streptococcus pneumoniae [17]): 99.2%; Activity (Streptococcus pneumoniae [18]): 100%; Activity (Streptococcus pneumoniae [19]): 100%; MIC (Streptococcus pneumoniae [7]): ≤ 0.5 µg/mL; Activity (Streptococcus pneumoniae [20]): 100%; Activity (Streptococcus pneumoniae [21]): 100%; Activity (Streptococcus pneumoniae [22]): 100%; Activity (Streptococcus pneumoniae [23]): 96.6%
